Measured values: US20110182871A1, “NOVEL MICROORGANISM AND PLANT DISEASE CONTROL AGENT USING THE MICROORAGNISM” (UNIVERSITY OF YAMANASHI, priority 2008, published 2011)

Columns and labels:
[1] = test system: Bacillus subtilis strain KS1; test: Drug resistance test: growth of strain KS1 on YBS medium containing a chemical pesticide; format: cell-based; conditions: 37° C., 2 days
Description: (§1) In this example, a test for resistance of Bacillus subtilis strain KS1 to chemical pesticides was performed. First, the YBS medium (one containing yeast extract and meat extract in agar) containing the chemical pesticide of interest was prepared in a petri dish. The concentration (ppm) of the chemical pesticide at this time was the same as a general application concentration. Next, Bacillus subtilis strain KS1 was smeared on the surface of the above-mentioned medium containing the chemical pesticide and incubated at 37° C. for 2 days. As a control area, a test for resistance of Bacillus subtilis isolated from a Botokiller water dispersible powder to chemical pesticides was performed in parallel. In this case, the suspension of the Botokiller water dispersible powder was spread on the YBS medium and the bacteria that appeared after overnight incubation at 37° C. were considered as the bacteria constituting a Botokiller water dispersible powder. In the resistance test, the bacteria constituting a Botokiller water dispersible powder were smeared on the surface of the medium containing a chemical pesticide and incubated at 37° C. for 2 days, as is the case with the above-mentioned Bacillus subtilis strain KS1. […]

[2] = test system: B. subtilis used in a Botokiller water dispersible powder; test: Drug resistance test: growth of the bacteria constituting a Botokiller water dispersible powder on YBS medium containing a chemical pesticide; format: cell-based, Bacillus subtilis; conditions: 37° C., 2 days
Description: as §1

With `S=C([S-])NCCNC(=S)[S-].[Mn+2]` [Maneb] the “Resistance of Bacillus subtilis strain KS1 to the chemical pesticide (in words)” value [1] was “showed resistance” and the “Resistance of the bacteria constituting a Botokiller water dispersible powder to the chemical pesticide (in words)” value [2] was “showed no resistance”.
